The record followed here is publication PMC6514670, “Field-Based Affinity Optimization of a Novel Azabicyclohexane Scaffold HIV-1 Entry Inhibitor” (Molecules, 2019).

Data set [1] deals with HIV-1B41, HIV-1HxBc2, HIV-1JRCSF, HIV-1JRFL, and HIV-1YU-2 Env pseudotyped HIV-1. As to the kind of experiment: Single-round infection assay, summary over the five Env pseudotypes. Particulars: Human immunodeficiency virus 1, read-out: Median IC50.
For another data set, the system named is U87.CD4.CCR5/CXCR4 cells. As to the kind of experiment: Cellular toxicity (Cell Counting Kit-8). Format: cell-based, Human. The following applies: CC50 / median IC50. The method, then: (§1) The viability of the U87.CD4.CCR5/CXCR4 cells was determined using the Cell Counting Kit-8 cell proliferation and cytotoxicity assay (Dojindo Molecular Technologies, Rockville, MD, USA) per the manufacturer’s instructions. U87.CD4.CCR5/CXCR4 cells (1.2 × 10^4 cells/well) were seeded in 96-well tissue culture plates (Olympus Plastics, San Diego, CA, USA). After 24 h, cells were treated with compound (0.1–1000 µM) or DMSO (Sigma) for 48 h at 37 °C. Subsequently, 10 µL of the CCK-8 solution was added to each well and incubated for 4 h at 37 °C. Following the 4 h incubation, the absorbance at 450 nm was measured in a Multiskan™ GO Microplate Spectrophotometer (Thermo Scientific). Untreated cells were used as a background control and 0.1% SDS treated cells were used as a positive control.

A short description of data set [2]: Cellular toxicity (Cell Counting Kit-8). Particulars: human, U87.CD4.CCR5/CXCR4 cells; 48 h, CCK-8, 0.1–1000 µM. Format: cell-based, Human. The method, then: as §1
On the technique in general: Tetrazolium dyes change colour on reduction, which living cells bring about.

The subject of data set [3] is HIV-1B41 Env pseudotyped HIV-1. As to the kind of experiment: Single-round infection assay, B41 Env pseudotyped virus. The following applies: Human immunodeficiency virus 1, U87/CD4/CCR5, 48 h, read-out: IC50 B41.
The subject of data set [4] is HIV-1JRFL Env pseudotyped HIV-1. As to the kind of experiment: Single-round infection assay, JRFL Env pseudotyped virus. The following applies: Human immunodeficiency virus 1, U87/CD4/CCR5, 48 h, read-out: IC50 JRFL.
Data set [5] deals with HIV-1YU-2 Env pseudotyped HIV-1. The experiment in a line: Single-round infection assay, YU-2 Env pseudotyped virus. Particulars: Human immunodeficiency virus 1, U87/CD4/CCR5, 48 h, read-out: IC50 YU-2.
The test system of data set [6] is HIV-1HxBc2 Env pseudotyped HIV-1. The experiment in a line: Single-round infection assay, HxBc2 Env pseudotyped virus. The following applies: Human immunodeficiency virus 1, U87.CD4.CXCR4, 48 h, read-out: IC50 HxBc2.
In data set [7] the target is B41 SOSIP.664 gp140 trimer (Human immunodeficiency virus type 1, UniProt B3UES2, A505C/E513R/I563P/INS515RR/K514R/T609C). The format is binding, HIV-1.
The subject of data set [8] is HIV-1JRCSF Env pseudotyped HIV-1. As to the kind of experiment: Single-round infection assay, JRCSF Env pseudotyped virus. The following applies: Human immunodeficiency virus 1, U87/CD4/CCR5, 48 h, read-out: IC50 JRCSF.

As to `CNC(=O)c1ncc(OC)c2c(C(=O)C(=O)NC3C4CN(C(=O)c5ccccc5)CC43)c[nH]c12` (stereo not shown) [SC49], the half-maximal inhibitory concentration (IC50) in data set [1] turned out to be 45 ± 15 µM; in [3], 26 ± 19 µM; in data set [4], 33.3 ± 11.6 µM; in data set [5], 57.2 ± 26.5 µM; in data set [6], 62 ± 1.4 µM. Further, the “Therapeutic Index (CC50/IC50)” value in the data set with U87.CD4.CCR5/CXCR4 cells stood at 7.31. Moreover, it took 326 ± 81 µM to reach half-maximal cytotoxicity in data set [2] (CC50 at 48 h). Also, the ka in data set [7] is 9.49 ± 1.6 × 10^2 M^−1s^−1. In addition, in data set [7], the kd is given as 3.43 ± 0.36 × 10^−2 s^−1.
Take `COc1ccc(-c2noc(N)n2)c2[nH]cc(C(=O)C(=O)NC3C4CN(C(=O)c5ccccc5)CC43)c12` (stereo not shown) [SC56, 2-(7-(5-Amino-1,2,4-oxadiazol-3-yl)-4-methoxy-1H-indol-3-yl)-N-(3-benzoyl-3-azabicyclo[3.1.0]hexan-6-yl)-2-oxoacetamide]: the IC50 in [8] came to 0.046 ± 0.009 µM; in data set [1] it was 0.0698 ± 0.045 µM; in data set [3], 0.051 ± 0.008 µM; in [4] it was 0.13 ± 0.015 µM; in [5], 0.11 ± 0.049 µM; in [6], 0.011 ± 0.003 µM. For the same molecule, the “Therapeutic Index (CC50/IC50)” value in the data set on U87.CD4.CCR5/CXCR4 cells was determined as 1344.71. In [2], this molecule registered a half-maximal cytotoxic concentration (CC50) at 48 h of 94 ± 10 µM. Besides, in data set [7], the “improvement in KD (affinity) in comparison to parental SC28” value came out at 1000 fold. In addition, in data set [7], the ka is reported as 1.22 ± 0.067 × 10^7 M^−1s^−1. Further, the kd in data set [7] is reported as 6.39 ± 0.31 × 10^−3 s^−1. Moreover, the SPR surface saturation result in data set [7] (12.5 µM and 6.25 µM, 13000 RUs trimer immobilized, theoretical Rmax 41 RUs) was “saturate the surface”. Further, the “increase of ka parameter in comparison to SC28” value in [7] (SPR) came to 1000 factor.
As for `COc1cnc(-n2cnc(C)n2)c2[nH]cc(C(=O)C(=O)N3CC=C(CNC(=O)c4ccccc4)CC3)c12` [SC45], in [7], the ka is on record as 1.38 ± 0.045 × 10^4 M^−1s^−1 and the kd is on record as 1.52 ± 0.0294 × 10^−2 s^−1.
In the case of `COc1cnc(-n2cnc(C)n2)c2[nH]cc(C(=O)C(=O)N3CC4CN(C(=O)c5ccccc5)CC4C3)c12` (stereo not shown) [SC11], in [7], the ka is 3.83 ± 1.12 × 10^3 M^−1s^−1 and the kd is on record as 5.02 ± 2.67 × 10^−4 s^−1.
On to `O=C(NC1C2CN(C(=O)c3ccccc3)CC21)C(=O)c1c[nH]c2c(-c3cccnc3)ncc(F)c12` (stereo not shown) [SC50], for which the IC50 turned out to be 28.9 ± 5.62 µM in [8]; 18 ± 9 µM in [1]; 7.1 ± 4.2 µM in data set [3]; 24.3 ± 6.2 µM in data set [4]; 22.6 ± 4.2 µM in data set [5]; 6.9 ± 5.2 µM in [6]. Also, in the data set with U87.CD4.CCR5/CXCR4 cells, the “Therapeutic Index (CC50/IC50)” value amounted to 6.63. For the same molecule, the CC50 at 48 h in data set [2] is 120 ± 18 µM.
For `Nc1nc(-c2ccc(F)c3c(C(=O)C(=O)NC4C5CN(C(=O)c6ccccc6)CC54)c[nH]c23)no1` (stereo not shown) [SC55, 2-(7-(5-amino-1,2,4-oxadiazol-3-yl)-4-fluoro-1H-indol-3-yl)-N-(3-benzoyl-3-azabicyclo[3.1.0]hexan-6-yl)-2-oxoacetamide], the 50% inhibitory concentration (IC50) worked out at 0.45 ± 0.35 µM in data set [8]; 0.96 ± 0.59 µM in [1]; 2.02 ± 0.81 µM in data set [3]; 0.45 ± 0.33 µM in [4]; 1.15 ± 0.81 µM in data set [5]; 0.73 ± 0.56 µM in data set [6]. Also, the “Therapeutic Index (CC50/IC50)” value in the data set with U87.CD4.CCR5/CXCR4 cells is 75.85. This molecule also yielded a 50% cytotoxic concentration (CC50) at 48 h in [2] of 73 ± 14 µM.
In the case of `COc1cnc(-n2cnc(C)n2)c2[nH]cc(C(=O)C(=O)N3CC(CCC(=O)c4ccccc4)C3)c12` [SC15], in [7], the ka is 3.01 ± 0.188 × 10^5 M^−1s^−1 and the kd is 5.44 ± 0.677 × 10^−3 s^−1.
With `C=C(C(=O)NC1C2CN(C(=O)c3ccccc3)CC21)n1ccc2c(-n3cnc(C)n3)nc3ccnn3c21` (stereo not shown) [SC52, N-(3-benzoyl-3-azabicyclo[3.1.0]hexan-6-yl)-2-(5-(3-methyl-1H-1,2,4-triazol-1-yl)-8H-pyrazolo[1,5-a]pyrrolo[3,2-e]pyrimidin-8-yl)acrylamide], the IC50 in data set [8] was 2.02 ± 0.25 µM; in data set [1] it was 1.06 ± 0.668 µM; in data set [3], 0.43 ± 0.1 µM; in data set [5], 1.35 ± 0.44 µM; in [6] it was 0.44 ± 0.17 µM. Further, the “Therapeutic Index (CC50/IC50)” value with U87.CD4.CCR5/CXCR4 cells is on record as 8.65. For the same molecule, the CC50 at 48 h in data set [2] was 9.2 ± 1.1 µM.
As to `COc1cnc(-n2cnc(C)n2)c2[nH]cc(C(=O)C(=O)NC3C4CN(C(=O)c5ccccc5)CC43)c12` (stereo not shown) [SC28], the half-maximal inhibitory concentration (IC50) in data set [8] is 0.026 ± 0.009 µM; in data set [1], 0.15 ± 0.17 µM; in data set [3] it was 0.035 ± 0.0062 µM; in data set [4], 0.17 ± 0.05 µM; in [5] it was 0.48 ± 0.05 µM; in data set [6] it was 0.021 ± 0.005 µM. Besides, in the data set on U87.CD4.CCR5/CXCR4 cells, the “Therapeutic Index (CC50/IC50)” value stood at 1291.21. Also, the cytotoxic concentration (CC50) at 48 h in data set [2] turned out to be 190 ± 54 µM. Moreover, the ka in [7] is on record as 1.39 ± 0.14 × 10^4 M^−1s^−1. In data set [7], the kd is on record as 6.99 ± 0.43 × 10^−3 s^−1.

In general, IC50 refers to the point on the concentration scale where inhibition reaches its midpoint. The CC50 is the concentration that lowers cell viability or growth by half. Read a low CC50 as harm at low concentration.
